The target in one assay is ATM (Homo sapiens (Human), UniProt Q13315). Put plainly: Caliper mobility shift assay for ATM. Format: biochemical. The note with it: read-out: IC50 of inhibitory activity on ATM kinase. As to the method: 1.2 Determination of the Inhibitory Activities of Compounds on ATM: Caliper Mobility Shift Assay for ATM
To a 96-well plate, 98 μL of DMSO and 2 μL of the 10 mM stock solution were added and mixed evenly so that the concentration of the solution was 200 μM.
Based on the inhibitory rates of the compound at different concentrations, IC50 was calculated according to the formula: Y=Bottom+(Top−Bottom)/(1+(IC50/X)^HillSlope).

The subject of assay [1] is subcutaneous xenograft tumor of human glioblastoma LN-18. Put plainly: LN-18 subcutaneous xenograft, combined with radiotherapy. The assay is classed as in vivo, NOG mice. The note with it: compound 5 mg/kg intragastric qd × 5 + IR 1 Gy, day 17. As to the method: 9 Efficacy Test of the Compounds of the Present Disclosure Combined with Radiotherapy on Inhibiting the Growth of Subcutaneous Xenograft Tumor of Human Glioblastoma LN-18
9.1 Experimental Animals: NOG Mice, SPF, Female, 18 to 22 g.
LN-18 tumor cells, DMEM medium:fetal bovine serum=95%:5%, accompanied by adding 100 U/mL penicillin and 100 μg/mL streptomycin, 37° C., 5% CO2.
LN18 tumor cells resuspended in serum-free DMEM medium were inoculated subcutaneously in the right costal region of experimental animals at 1.5*10^7/0.15 mL, and the animals were grouped when the tumor grew to 100 to 150 mm^3. Radiotherapy was performed 1 h after administration of compounds.
Tumor volume: The tumor volume was measured twice a week with a vernier caliper, and the long diameter and short diameter of tumor were measured. The tumor volume was calculated as follows: tumor volume (TV)=0.5×long diameter×short diameter^2. Tumor growth inhibitory rate (TGI %) was calculated according to the tumor volume. TVXn represents the mean tumor volume on day n of the treatment group, TVX0 represents the mean tumor volume on day 0 of the treatment group, TVMn represents the mean tumor volume on day n of the control group, and TVM0 represents the mean tumor volume on day 0 of the control group.

In assay [2] the test system is Human glioblastoma cell line LN-18. Put plainly: LN18 cell proliferation combined with radiotherapy (CTG assay).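 For IC50: readout is CTG luminescence proliferation not KAP1 phosphorylation.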 The assay is classed as cell-based. The note with it: for IC50: LN18 cells, 1 Gy irradiation 1 h after compound, 6 days, CTG; for inhibitory effect on LN18 cell proliferation, in words: combined with radiotherapy, compared with AZD1390 as positive control. As to the method:
5 Test of the Inhibitory Activities of the Compounds of the Present Disclosure Combined with Radiotherapy on LN18 Cell Proliferation
• Cell: Human glioblastoma cell line LN-18
5.2 Experimental Procedures
• (1) Cell inoculation • 1) The cell culture fluid was preheated at 37° C. • 2) A complete culture medium of LN18 cells was prepared, at a ratio of DMEM medium:FBS=95:5 (V/V). • 3) Cells were digested with trypsin, collected to serve as a cell suspension, and counted, the cell suspension was then added into a 96-well plate at 1500 cells/well and 100 μL of cell fluid/well, and three parallel wells were set. • 4) After inoculated in the plate, the cells were cultured overnight under the condition of 37° C. and 5% CO2. • (2) Compound addition and incubation • 1) AZD1390 and tested compounds, respectively, were sequentially diluted 5 times with DMSO, starting from the concentration of 10 mM and yielding the concentrations of 10, 2, 0.4, 0.08, 0.016, 0.0032, 0.00064, 0.000128, and 0.0000256 mM in turn. The compound solutions at the above concentrations were diluted 5000 times with the complete culture medium. The final 2× concentrations were in order 2000, 400, 80, 16, 3.2, 0.64, 0.128, 0.0256, and 0.00512 nM. The vehicle control was 0.02% DMSO culture fluid. • 2) A complete culture medium containing 100 μL of the compound solution was added to each well, and the final concentrations of the compounds in the wells were in order 1000, 200, 40, 8, 1.6, 0.32, 0.064, 0.0128, and 0.00256 nM. The 0.01% DMSO culture fluid was contained in the vehicle control well. After incubated with compound for 1 h, the cells were irradiated at a dose of 1 Gy. • 3) After irradiation, the plate was put into an incubator and incubated under the condition of 37° C. and 5% CO2 for 6 days. Then detection was performed by adopting CTG assay (100 μL of liquid from each well was sucked out and discarded, and 50 μL of CTG reagent was added to each well, and incubated at room temperature for 30 min, and the luminescence intensity was detected). • (3) Data analysis • 1) The Luminescence signal (RLU) of each well was detected. • 2) Proliferation inhibitory activity was calculated according to the formula: % inhibitory activity=RLUtreatment/RLUAvg(Vehicle)*100. 5.3 the Inhibitory Activities of Compounds of the Present Disclosure Combined with Radiotherapy on LN18 Cell Proliferation

The subject of the next assay is ATM-phosphorylated KAP1. As to the kind of experiment: Intracellular ATM-phosphorylated KAP1 level, ICW assay in MCF7 cells. The assay is classed as cell-based, Human. As to conditions: for IC50: MCF7 cells, 2 h compound, 10 Gy irradiation, further 1 h, read-out: pKAP1 IC50; for inhibitory effect on ATM KAP phosphorylation, in words: cellular level, compared with AZD1390 as positive control. As to the method: 4 Inhibition on Intracellular ATM-Phosphorylated KAP1 Level by the Compounds of the Present Disclosure: ICW Assay
• Cell: Human breast cancer cell line MCF7 • Materials and reagents:
4.2 Experimental Procedures
• (1) Cell inoculation • MCF7 cells were inoculated on a 384-well plate, 10000 cells/well (25 μL/well), and cultured overnight at 37° C. with 5% CO2. • (2) Activity detection • 1) The compound was formulated into a 100 mM solution with DMSO and then sequentially diluted with a gradient of 1:3 to yield a total of 10 concentration gradients, wherein the maximum concentration was 100 μM. • 2) 25 nL of each of the compound solutions with gradient concentrations prepared in step 1) was added to each well of the cell plate (Corning #356663) by using I-DOT One, resulting in a final concentration of 100 nM (maximum dose). • 3) The cell plate containing compound was incubated at 37° C. with 5% CO2 for 2 h. After 2 h, the cell plate was irradiated with a dose of 10 Gy, and then further incubated for 1 h. • 4) 25 μL of 8% paraformaldehyde was added to each well, followed by incubating at room temperature for 20 min. • 5) The 8% paraformaldehyde was discarded, followed by adding 0.1% TrintonX-100 and incubating at room temperature for 30 min. • 6) Odessey blocking buffer was added at 50 μL/well, followed by incubating at room temperature for 1.5 h. • 7) The Odessey blocking buffer was discarded, and then a primary antibody (Phospho-KAP1, 1:2000 dilution) was added, followed by incubating overnight at 4° C. • 8) The primary antibody was removed, followed by washing with PBS+0.1% Tween 20 for 5 times. • 9) DNA dye DRAQ5 coated with a second antibody (IRDye 800CW Goat anti-Rabbit, 1:4000 dilution) was added, followed by incubating at room temperature for 1 h. • 10) The second antibody was removed, followed by washing with PBS+0.1% Tween 20 for 5 times. • 11) PBS+0.1% Tween 20 was sucked off with Odyssey. • (3) Data analysis • 1) the relative ratio of Channel 800/Channel 700 for each well was detected. • 2) % of KAP1 phosphorylation was calculated according to the following formula:
% of KAP1 phosphorylation=[(Ratiocmpd−(Ratio)Positive)/((Ratio)Vehicle−(Ratio)Positive]*100 • (Ratio)Positive: the mean value of the test values of each positive control well in the test cell plate; • (Ratio)Vehicle: the mean value of the test values of each negative control well in the test cell plate. • 3) the IC50 of each compound was calculated and the dose-effect curve was plotted: % of KAP1 phosphorylation and log of compound's concentration were fit by using Graphpad 8.0 so as to calculate the IC50.
[formula] • X: log of compound's concentration • Y: % of KAP1 phosphorylation

The test system of assay [3] is subcutaneous xenograft tumor of human colon cancer cell line HT-29. As to the kind of experiment: HT-29 subcutaneous xenograft, combined with irinotecan liposome injection. The assay is classed as in vivo, NU/NU mice. As to the method:
7 Efficacy Test of the Compounds of the Present Disclosure Combined with Irinotecan Liposome Injection on Inhibiting the Growth of Subcutaneous Xenograft Tumor of Human Colon Cancer Cell Line HT-29
7.1 Experimental Animals: NU/NU Mice, SPF, Female, 20 to 30 g.
Irinotecan liposome injection (HE072), 43 mg: 10 mL, milky white liquid, batch No. B37191202, provided by Preparation Research Institute 2 from CSPC Zhongqi Pharmaceutical Technology (Shijiazhuang) Co., Ltd., diluted to an appropriate concentration with 5% glucose injection while testing.
HT-29 cell, provided by Nanjing Kebai Biotechnology Co., Ltd.; 5A culture medium:fetal bovine serum=90%:10%, 37° C., 5% CO2.
NU/NU nude mice were subcutaneously inoculated with HT-29 human colon cancer cells. When the mean tumor volume reached about 170 mm^3 (9 days after inoculation), the animals were evenly divided into groups according to the tumor volume (d0), with 6 mice in each group. 10 mg/kg of HE072 was administered intraperitoneally once a week for 1 time. Vehicle control, 25 mg/kg of A-6, 25 mg/kg of A-46, and 25 mg/kg of AZD1390 were administered intragastrically once a day, from Monday to Thursday every week except Friday to Sunday, for 1 week (4 times). The tumor volume was measured twice a week, the body weight of mouse was weighed every day, and the data were recorded. The tumor volume (TV) was calculated according to the formula: TV=½×a×b2, wherein a and b represent the long and short diameters of tumor, respectively. Tumor growth inhibitory rate TGI (%)=[1−(Ti−T0)/(Vi−V0)]×100, wherein Ti represents the mean tumor volume of a given treatment group on a certain day; TO represents the mean tumor volume of this treatment group at the beginning of administration; Vi represents the mean tumor volume of the vehicle control group on a certain day (the same day as that in Ti); V0 represents the mean tumor volume of the vehicle control group at the beginning of administration. At the end of the test (d17), the animals were sacrificed, the tumors were stripped and weighed, and the tumor weight inhibitory rates were calculated.

[4] abbreviates: Homo sapiens, LN-18, light or radiation study.
[5] abbreviates: Homo sapiens, light or radiation study.
[6] abbreviates: compound 25 mg/kg intragastric + irinotecan liposome 10 mg/kg ip, day 16.
Setting [7] is: compound 25 mg/kg intragastric + irinotecan liposome 10 mg/kg ip, end of test.

Read-outs that look alike come from different tables or passages of the source. Marks after values point to notes of the source that are not given here.

Chain of ATM (Q13315 whole entry): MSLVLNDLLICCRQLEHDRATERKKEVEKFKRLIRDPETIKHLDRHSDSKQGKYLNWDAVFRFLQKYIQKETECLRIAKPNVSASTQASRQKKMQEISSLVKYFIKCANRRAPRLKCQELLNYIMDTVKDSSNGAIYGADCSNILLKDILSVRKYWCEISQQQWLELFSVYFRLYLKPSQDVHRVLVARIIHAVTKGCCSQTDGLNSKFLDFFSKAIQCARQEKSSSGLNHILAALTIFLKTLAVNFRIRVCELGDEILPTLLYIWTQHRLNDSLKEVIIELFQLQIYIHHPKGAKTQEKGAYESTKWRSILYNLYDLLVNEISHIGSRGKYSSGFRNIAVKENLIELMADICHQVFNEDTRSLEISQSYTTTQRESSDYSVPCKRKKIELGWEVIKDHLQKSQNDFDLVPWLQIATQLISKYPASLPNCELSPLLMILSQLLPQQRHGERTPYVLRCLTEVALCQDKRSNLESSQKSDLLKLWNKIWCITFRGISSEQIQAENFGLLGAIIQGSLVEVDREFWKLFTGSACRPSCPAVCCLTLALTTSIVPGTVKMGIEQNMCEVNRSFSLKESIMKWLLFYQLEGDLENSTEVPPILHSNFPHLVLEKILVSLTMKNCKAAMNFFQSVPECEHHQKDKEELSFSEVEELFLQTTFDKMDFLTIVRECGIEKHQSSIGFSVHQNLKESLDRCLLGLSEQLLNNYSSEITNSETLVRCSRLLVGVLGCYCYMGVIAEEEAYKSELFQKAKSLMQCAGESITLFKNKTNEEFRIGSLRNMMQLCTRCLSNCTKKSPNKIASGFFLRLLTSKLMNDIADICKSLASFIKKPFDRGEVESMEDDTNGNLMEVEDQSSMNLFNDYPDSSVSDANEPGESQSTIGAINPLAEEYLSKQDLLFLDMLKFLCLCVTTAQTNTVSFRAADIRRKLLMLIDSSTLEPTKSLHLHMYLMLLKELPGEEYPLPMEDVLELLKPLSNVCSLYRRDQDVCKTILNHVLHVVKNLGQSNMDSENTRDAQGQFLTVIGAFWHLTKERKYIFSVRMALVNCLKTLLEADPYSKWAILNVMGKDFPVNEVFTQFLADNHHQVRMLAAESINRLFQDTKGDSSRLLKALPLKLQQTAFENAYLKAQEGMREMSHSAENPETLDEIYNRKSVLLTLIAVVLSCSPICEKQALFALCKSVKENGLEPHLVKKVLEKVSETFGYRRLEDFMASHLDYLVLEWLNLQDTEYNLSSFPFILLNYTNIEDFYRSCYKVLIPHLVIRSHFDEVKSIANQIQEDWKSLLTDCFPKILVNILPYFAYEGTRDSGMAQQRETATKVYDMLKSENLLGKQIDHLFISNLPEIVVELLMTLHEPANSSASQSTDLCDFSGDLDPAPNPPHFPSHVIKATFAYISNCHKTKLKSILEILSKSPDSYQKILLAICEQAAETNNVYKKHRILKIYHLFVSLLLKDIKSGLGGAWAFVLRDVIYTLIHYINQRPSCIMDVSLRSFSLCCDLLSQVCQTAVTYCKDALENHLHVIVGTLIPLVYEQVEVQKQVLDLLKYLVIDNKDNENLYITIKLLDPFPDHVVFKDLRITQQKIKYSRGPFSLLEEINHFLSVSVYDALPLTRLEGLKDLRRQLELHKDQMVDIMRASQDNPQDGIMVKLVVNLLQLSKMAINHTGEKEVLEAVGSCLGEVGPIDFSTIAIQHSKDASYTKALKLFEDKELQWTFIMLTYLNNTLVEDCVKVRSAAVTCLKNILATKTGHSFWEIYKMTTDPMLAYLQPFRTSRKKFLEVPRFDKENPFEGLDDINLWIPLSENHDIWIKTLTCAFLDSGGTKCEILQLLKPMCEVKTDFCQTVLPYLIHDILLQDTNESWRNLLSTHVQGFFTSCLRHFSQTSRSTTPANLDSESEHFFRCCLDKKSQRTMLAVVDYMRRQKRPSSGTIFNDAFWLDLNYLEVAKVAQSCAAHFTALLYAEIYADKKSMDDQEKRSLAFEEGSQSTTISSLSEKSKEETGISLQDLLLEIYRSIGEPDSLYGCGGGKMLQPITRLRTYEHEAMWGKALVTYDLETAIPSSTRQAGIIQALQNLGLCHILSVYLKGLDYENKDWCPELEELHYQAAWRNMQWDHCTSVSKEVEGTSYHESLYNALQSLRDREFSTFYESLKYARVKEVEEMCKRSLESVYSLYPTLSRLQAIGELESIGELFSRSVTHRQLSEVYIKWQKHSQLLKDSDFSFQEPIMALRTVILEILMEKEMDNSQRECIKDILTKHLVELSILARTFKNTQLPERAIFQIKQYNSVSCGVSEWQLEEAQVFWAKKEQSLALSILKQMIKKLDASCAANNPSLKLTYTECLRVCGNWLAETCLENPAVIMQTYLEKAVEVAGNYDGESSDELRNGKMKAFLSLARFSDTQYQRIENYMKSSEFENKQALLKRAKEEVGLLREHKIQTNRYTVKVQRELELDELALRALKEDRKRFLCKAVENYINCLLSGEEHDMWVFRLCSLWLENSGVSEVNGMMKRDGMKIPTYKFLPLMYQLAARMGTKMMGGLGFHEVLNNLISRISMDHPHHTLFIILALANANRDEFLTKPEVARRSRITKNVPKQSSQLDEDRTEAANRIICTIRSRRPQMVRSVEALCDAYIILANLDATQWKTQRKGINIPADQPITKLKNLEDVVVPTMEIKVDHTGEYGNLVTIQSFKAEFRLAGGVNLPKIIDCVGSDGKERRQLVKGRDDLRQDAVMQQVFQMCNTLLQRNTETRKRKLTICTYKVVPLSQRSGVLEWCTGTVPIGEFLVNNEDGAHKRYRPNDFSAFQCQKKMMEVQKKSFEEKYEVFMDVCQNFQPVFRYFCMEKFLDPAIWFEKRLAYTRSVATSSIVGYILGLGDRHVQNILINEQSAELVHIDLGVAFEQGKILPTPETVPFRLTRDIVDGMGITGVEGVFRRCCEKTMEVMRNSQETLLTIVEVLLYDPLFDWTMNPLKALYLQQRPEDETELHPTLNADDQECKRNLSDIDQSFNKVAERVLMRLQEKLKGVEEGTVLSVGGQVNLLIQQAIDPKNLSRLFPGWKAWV

By IC50 is commonly meant the point on the concentration scale where inhibition reaches its midpoint. Turning to `C[C@H]1COc2c(-c3ccc(OCCCN4CCCCC4)nc3)ccc3ncc4c(c23)n1c(=O)n4C` [Example A-177, (S)-2,10-dimethyl-7-(6-(3-(piperidin-1-yl)propoxy)pyridin-3-yl)-9,10-dihydro-8-oxa-2,4,10a-triazanaphtho[2,1,8-cde]azulen-1(2H)-one], the IC50 stood at 250 pM at ATM, 5220 pM in assay [2] (setting [4]) and 610 pM in the assay with ATM-phosphorylated KAP1 (setting [5]). Also, the “D 17 TGI” value in assay [1] is given as 77.9%. In addition, the “D 17 TV (MEAN ± SD)” value in assay [1] was 338 ± 67***^ mm^3.

Consider `C[C@H]1COc2c(-c3ccc(OCCCN4CCC5(CC4)COC5)nc3)ccc3ncc4c(c23)n1c(=O)n4C` [Example A-184, (S)-7-(6-(3-(2-oxa-7-azaspiro[3.5]nonan-7-yl)propoxy)pyridin-3-yl)-2,10-dimethyl-9,10-dihydro-8-oxa-2,4,10a-triazanaphtho[2,1,8-cde]azulen-1(2H)-one], for which the IC50 at ATM amounted to 250 pM; in assay [2] (setting [4]), 3840 pM; in the assay with ATM-phosphorylated KAP1 (setting [5]), 330 pM. Further, in the assay on ATM-phosphorylated KAP1, the “inhibitory effect on ATM KAP phosphorylation, in words” value is “higher than that of AZD1390”.

As for `C[C@H]1CNc2c(-c3ccc(OCCCN4CCC(C)(C)CC4)nc3)ccc3ncc4c(c23)n1c(=O)n4C` [Example A-212, (S)-7-(6-(3-(4,4-dimethylpiperidin-1-yl)propoxy)pyridin-3-yl)-2,10-dimethyl-2,8,9,10-tetrahydro-1H-2,4,8,10a-tetraazanaphtho[2,1,8-cde]azulen-1(2H)-one], the IC50 at ATM turned out to be 370 pM. In addition, in assay [2], the IC50 was determined as 1480 pM and the “inhibitory effect on LN18 cell proliferation, in words” value was “higher than that of AZD1390”. Moreover, in the assay with ATM-phosphorylated KAP1, the IC50 is 370 pM and the “inhibitory effect on ATM KAP phosphorylation, in words” value is “higher than that of AZD1390”.

For `CC1CCN(CCCOc2ccc(-c3ccc4ncc5c6c4c3NC[C@H](C)n6c(=O)n5C)cn2)CC1` [Example A-211, (S)-2,10-dimethyl-7-(6-(3-(4-methylpiperidin-1-yl)propoxy)pyridin-3-yl)-2,8,9,10-tetrahydro-1H-2,4,8,10a-tetraazanaphtho[2,1,8-cde]azulen-1(2H)-one], at ATM, the IC50 is 330 pM. Besides, in assay [2], the IC50 worked out at 2710 pM and the “inhibitory effect on LN18 cell proliferation, in words” value is given as “higher than that of AZD1390”. In the assay with ATM-phosphorylated KAP1, the IC50 was 330 pM and the “inhibitory effect on ATM KAP phosphorylation, in words” value is “higher than that of AZD1390”.

`CN(C)CCCOc1ccc(-c2c(F)cc3ncc4c5c3c2OCC(C)(C)n5c(=O)n4C)cn1` [Example A-46, 7-(6-(3-(dimethylamino)propoxy)pyridin-3-yl)-6-fluoro-2,10,10-trimethyl-9,10-dihydro-8-oxa-2,4,10a-triazanaphtho[2,1,8-cde]azulen-1(2H)-one]: the IC50 at ATM was found to be 520 pM. Besides, in assay [3] (combined with irinotecan liposome injection, compared with AZD1390), the “inhibitory effect on tumor volume and tumor weight, in words” value is reported as “higher than those of AZD1390”. Besides, in assay [3] (setting [6]), the “D 16 TGI” value is 102.2% and the “D 16 TV (MEAN ± SD)” value was 149.5 ± 67.4***^### mm^3. Further, in assay [3] (setting [7]), the Tumor weight turned out to be 0.12 ± 0.06 g and the “Tumor weight inhibitory rate” value turned out to be 82.0%.

Values taken from patent US20240294545A1 (CSPC Zhongqi Pharmaceutical Technology (Shijiazhuang) Co., …, priority 2020, published 2024).
